Results taken from the supplement of paper PMC10307832.

Columns and labels:
Test in all cases: relative viability (nuclei count vs DMSO), 5 days (fraction); higher = more cells survive
Erlotinib + Pemetrexed = compound: C#Cc1cccc(Nc2ncnc3cc(OCCOC)c(OCCOC)cc23)c1 [Erlotinib] + Nc1nc2[nH]cc(CCc3ccc(C(=O)N[C@@H](CCC(=O)O)C(=O)O)cc3)c2c(=O)[nH]1 [Pemetrexed] (partner 0.2 µM)
Method in brief: (§1)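 After 5 days of treatment, lung cancer cells in 1536-well plates were fixed and stained in a single step (final 0.05% Triton X-100, 1% formaldehyde, 1 ug/ml Hoechst) and their nuclei counted on 4× images. Treatment had been applied by pin tool the day after seeding as one drug alone or as a fixed anchor-drug dose with five library-drug doses (not always all listed) in √10 steps. Relative viability is the nuclei count of treated wells divided by that of vehicle wells, and values are medians of duplicate plates.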

Erlotinib + Decitabine = compound: C#Cc1cccc(Nc2ncnc3cc(OCCOC)c(OCCOC)cc23)c1 [Erlotinib] + Nc1ncn([C@H]2C[C@H](O)[C@@H](CO)O2)c(=O)n1 [Decitabine] (partner 2 µM)
Method in brief: as §1

AT9283 + Palbociclib = compound: O=C(Nc1c[nH]nc1-c1nc2ccc(CN3CCOCC3)cc2[nH]1)NC1CC1 [AT9283] + CC(=O)c1c(C)c2cnc(Nc3ccc(N4CCNCC4)cn3)nc2n(C2CCCC2)c1=O [Palbociclib] (partner 0.5 µM)
Method in brief: as §1

AT9283 + Pictilisib = compound: O=C(Nc1c[nH]nc1-c1nc2ccc(CN3CCOCC3)cc2[nH]1)NC1CC1 [AT9283] + CS(=O)(=O)N1CCN(Cc2cc3nc(-c4cccc5[nH]ncc45)nc(N4CCOCC4)c3s2)CC1 [Pictilisib] (partner 1 µM)
Method in brief: as §1

AT9283 + AZD7762 = compound: O=C(Nc1c[nH]nc1-c1nc2ccc(CN3CCOCC3)cc2[nH]1)NC1CC1 [AT9283] + NC(=O)Nc1cc(-c2cccc(F)c2)sc1C(=O)N[C@H]1CCCNC1 [AZD7762] (partner 0.2 µM)
Method in brief: as §1

Cell Line	relative viability (Erlotinib + Pemetrexed; first compound 0.02 µM)	relative viability (Erlotinib + Pemetrexed; first compound 0.2 µM)	relative viability (Erlotinib + Pemetrexed; first compound 0.6325 µM)	relative viability (Erlotinib + Pemetrexed; first compound 2 µM)	relative viability (Erlotinib + Decitabine; first compound 0.02 µM)	relative viability (Erlotinib + Decitabine; first compound 0.2 µM)	relative viability (Erlotinib + Decitabine; first compound 0.6325 µM)	relative viability (Erlotinib + Decitabine; first compound 2 µM)	relative viability (AT9283 + Palbociclib; first compound 0.003 µM)	relative viability (AT9283 + Palbociclib; first compound 0.03 µM)	relative viability (AT9283 + Palbociclib; first compound 0.09487 µM)	relative viability (AT9283 + Palbociclib; first compound 0.3 µM)	relative viability (AT9283 + Pictilisib; first compound 0.003 µM)	relative viability (AT9283 + Pictilisib; first compound 0.03 µM)	relative viability (AT9283 + Pictilisib; first compound 0.09487 µM)	relative viability (AT9283 + Pictilisib; first compound 0.3 µM)	relative viability (AT9283 + AZD7762; first compound 0.003 µM)	relative viability (AT9283 + AZD7762; first compound 0.03 µM)	relative viability (AT9283 + AZD7762; first compound 0.09487 µM)	relative viability (AT9283 + AZD7762; first compound 0.3 µM)
201T	0.339	0.336	0.348	0.32	0.851	0.793	0.824	0.8	0.352	0.362	0.265	0.279	0.642	0.731	0.476	0.396	0.609	0.527	0.45	0.31
A-427	0.967	1.04	1.06	1.01	0.585	0.562	0.592	0.582	0.523	0.39	0.299	0.3	0.744	0.606	0.19	0.208	0.675	0.306	0.227	0.269
BEN	0.766	0.83	1.03	0.766	0.711	0.72	0.841	0.66	0.458	0.456	0.412	0.356	0.501	0.555	0.188	0.224	0.595	0.62	0.327	0.321
ChaGo-K-1	0.276	0.259	0.267	0.26	0.528	0.51	0.496	0.518	0.931	0.761	0.295	0.212	0.357	0.511	0.179	0.233	0.88	0.685	0.404	0.222
EKVX	0.411	0.283	0.286	0.19	0.341	0.232	0.234	0.212	0.387	0.368	0.274	0.179	0.419	0.411	0.199	0.142	0.647	0.56	0.584	0.289
EMC-BAC-2	0.466	0.425	0.432	0.421		0.882	0.951	0.82	0.471	0.376	0.289	0.247	0.537	0.375	0.228	0.235	1.04	0.411	0.349	0.281
EPLC-272H	0.385	0.329	0.29	0.371	0.362	0.332	0.324	0.316	0.306	0.355	0.276	0.241	0.318	0.26	0.199	0.165	0.139	0.23	0.104	0.144
H3255	0.528	0.387	0.383	0.233		0.433	0.244	0.168	0.337	0.316	0.323	0.284	0.448	0.461	0.213	0.148	0.832	0.746	0.548	0.211
HARA	0.259	0.21	0.186	0.222	0.69	0.49	0.374	0.353	0.265	0.23	0.135	0.141	0.373	0.425	0.0788	0.0662	0.315	0.232	0.0942	0.158
HCC-15	0.241	0.225	0.249	0.215	0.642	0.623	0.644	0.563	0.65	0.681	0.187	0.164	0.686	0.494	0.136	0.138	1.26	1.19	0.926	0.255
HCC-44	0.682	0.724	0.662	0.639	1	0.972		1	0.992	1	0.557	0.698	0.598	0.627	0.151	0.123	1.04	1.05	1.02	0.971
HCC-78	0.883	0.912	0.892	0.899	0.728	0.743	0.705	0.584	0.473	0.476	0.396	0.347	0.211	0.218	0.123	0.151	0.593	0.44	0.353	0.234
HCC-366	0.176	0.197	0.127	0.136	0.353	0.324	0.335	0.264	0.373	0.309	0.157	0.101	0.145	0.152	0.0339	0.0503	0.209	0.485	0.0684	0.0719
HCC-827	0.182	0.147	0.139	0.156	0.21	0.215	0.111	0.169	0.478	0.428	0.272	0.174	0.822	0.775	0.457	0.504	0.234	0.169	0.145	0.153
HOP-62	0.285	0.332	0.255	0.312	0.232	0.221	0.187	0.241	0.468	0.405	0.188	0.197	0.645	0.351	0.19	0.146	0.561	0.143	0.161	0.199
LC-2-ad	0.307	0.279	0.274	0.262	0.889	0.79	0.735	0.656	0.458	0.415	0.29	0.229	0.396	0.194	0.0807	0.0727	0.848	0.794	0.398	0.227

Cell Line	relative viability (Erlotinib + Pemetrexed; first compound 0.02 µM)	relative viability (Erlotinib + Pemetrexed; first compound 0.2 µM)	relative viability (Erlotinib + Pemetrexed; first compound 0.6325 µM)	relative viability (Erlotinib + Pemetrexed; first compound 2 µM)	relative viability (Erlotinib + Decitabine; first compound 0.02 µM)	relative viability (Erlotinib + Decitabine; first compound 0.2 µM)	relative viability (Erlotinib + Decitabine; first compound 0.6325 µM)	relative viability (Erlotinib + Decitabine; first compound 2 µM)	relative viability (AT9283 + Palbociclib; first compound 0.003 µM)	relative viability (AT9283 + Palbociclib; first compound 0.03 µM)	relative viability (AT9283 + Palbociclib; first compound 0.09487 µM)	relative viability (AT9283 + Palbociclib; first compound 0.3 µM)	relative viability (AT9283 + Pictilisib; first compound 0.003 µM)	relative viability (AT9283 + Pictilisib; first compound 0.03 µM)	relative viability (AT9283 + Pictilisib; first compound 0.09487 µM)	relative viability (AT9283 + Pictilisib; first compound 0.3 µM)	relative viability (AT9283 + AZD7762; first compound 0.003 µM)	relative viability (AT9283 + AZD7762; first compound 0.03 µM)	relative viability (AT9283 + AZD7762; first compound 0.09487 µM)	relative viability (AT9283 + AZD7762; first compound 0.3 µM)
LCLC-97TM1	0.22	0.201	0.176	0.155	0.224	0.254	0.234	0.256	0.199	0.201	0.106	0.0962	0.171	0.141	0.0991	0.114	0.305	0.102	0.0858	0.0762
LCLC-103H	0.502	0.449	0.476	0.45	0.765	0.688	0.716	0.639	0.362	0.494	0.423	0.371	0.536	0.427	0.251	0.291	0.749	0.661	0.554	0.328
LK-2	0.259	0.278	0.318	0.235	0.294	0.291	0.346	0.262	0.527	0.145	0.133	0.115	0.602	0.22	0.219	0.248	0.344	0.109	0.0946	0.0986
LOU-NH91	0.448	0.393	0.414	0.371	0.715	0.626	0.688	0.602	0.552	0.515	0.418	0.439	0.469	0.487	0.482	0.394	0.735	0.669	0.479	0.444
LU99A	0.166	0.196	0.16	0.151		0.92	0.983	0.765	0.358	0.226	0.14	0.139	0.293	0.185	0.152	0.164	0.457	0.137	0.139	0.148
LXF-289	0.908		0.819	0.783	0.448	0.398	0.363	0.383	0.608	0.647	0.254	0.152	0.727	0.668	0.0746	0.0864	1.11	0.782	0.141	0.096
NCI-H23	0.774	0.575	0.747	0.523	0.312	0.293	0.324	0.337	0.496	0.454	0.417	0.243	0.457	0.267	0.213	0.153	0.265	0.295	0.179	0.128
NCI-H322M	0.604	0.548	0.521	0.507	0.718	0.582	0.55	0.545	0.481	0.494	0.423	0.427	0.498	0.413	0.294	0.298	0.554	0.395	0.46	0.487
NCI-H358	0.176	0.156	0.147	0.164	0.216	0.183	0.179	0.167	0.191	0.0774	0.0806	0.0739	0.278	0.171	0.141	0.132	0.431	0.178	0.186	0.175
NCI-H460	0.0628	0.0521	0.0611	0.0588	0.508	0.433	0.505	0.47	0.146	0.191	0.0941	0.0475	0.305	0.302	0.0565	0.0907	0.543	0.687	0.131	0.11
NCI-H522	0.94	1.08	1.12	0.811	0.661	0.751	0.659	0.589	0.945	0.731	0.577	0.585					0.626	0.582	0.399	0.37
NCI-H647	0.173	0.187	0.19	0.151	0.422	0.392	0.442	0.456	0.395	0.363	0.126	0.131	0.43	0.159	0.0749	0.085	0.524	0.13	0.0611	0.0591
NCI-H650	0.966	0.852	0.991	1	0.34	0.313	0.303	0.307	0.314	0.334	0.209	0.122	0.853	0.816	0.274	0.186	0.814	0.923	0.373	0.227
NCI-H1648	0.759	0.707	0.629	0.66	0.433	0.512	0.491	0.39	0.247	0.262	0.242	0.297					0.465	0.631	0.368	0.37
NCI-H2342	0.707	0.822	0.715	0.583	0.78		0.701	0.683	0.505	0.535	0.502	0.449					0.439	0.364	0.36	0.4
SW 900	0.497	0.495	0.461	0.445	0.392	0.526	0.429	0.374	0.462	0.542	0.368	0.253					0.478	1.15	0.545	0.271
